In patent US20150011541A1, “PIPECOLATE-SULFONAMIDES FOR TREATMENT OF PSYCHIATRIC DISORDERS” (Max-Planck-Gesellschaft zur Förderung der Wissenschaften …, priority 2011, published 2015):
Read-outs that look alike come from different tables or passages of the source.

Columns and labels:
[1] = biological target: T1, human FKBP52FK1 (Homo sapiens, UniProt Q02790); assay: Fluorescence polarization assay, binding to FK1 domain of FKBP52; details: for inhibition at 5 µM: read-out: FKBP52 FK1 % inhibition; for IC50: binding affinity, fluorescence polarization assay
T1 sequence (Q02790 50-138 limits assumed): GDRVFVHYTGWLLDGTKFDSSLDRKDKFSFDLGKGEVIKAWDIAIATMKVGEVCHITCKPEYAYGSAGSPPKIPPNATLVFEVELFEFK

[2] = biological target: T2, human FKBP51FK1 (Homo sapiens, UniProt Q13451); assay: Fluorescence polarization assay, binding to FK1 domain of FKBP51; details: for inhibition at 5 µM: read-out: FKBP 51 FK1 % inhibition; for IC50: binding affinity, fluorescence polarization assay
T2 sequence (Q13451 42-130 limits assumed): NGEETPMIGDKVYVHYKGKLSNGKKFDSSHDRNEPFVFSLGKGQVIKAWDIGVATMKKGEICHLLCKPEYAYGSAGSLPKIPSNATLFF

[3] = at a concentration of 5 μM, library testing

| Compound | inhibition at 5 µM [1, 3] | inhibition at 5 µM [2, 3] | also measured |
| --- | --- | --- | --- |
| COc1ccc(CC[C@@H](OC(=O)[C@@H]2CCCCN2S(=O)(=O)c2cccc(-c3nnc(C)o3)c2)c2cccc(OCC(=O)O)c2)cc1OC [Compound 47, 2-(3-((R)-3-(3,4-dimethoxyphenyl)-1-((S)-1-(3-(5-methyl-1,3,4-oxadiazol-2-yl)phenylsulfonyl)piperidine-2-carbonyloxy)propyl)phenoxy)acetic acid] | 3.8% | 4.9% | – |
| COc1ccc(CC[C@@H](OC(=O)[C@@H]2CCCCN2S(=O)(=O)c2cccc3c2ccn3C)c2cccc(OCC(=O)O)c2)cc1OC [Compound 49, 2-(3-((R)-3-(3,4-dimethoxyphenyl)-1-((S)-1-(1-methyl-1H-indol-4-ylsulfonyl)piperidine-2-carbonyloxy)propyl)phenoxy)acetic acid] | 6.6% | -0.8% | – |
| COc1ccc(CC[C@@H](OC(=O)[C@@H]2CCCCN2S(=O)(=O)c2ccc(-c3ccccc3)s2)c2cccc(OCC(=O)O)c2)cc1OC [Compound 56, 2-(3-((R)-3-(3,4-dimethoxyphenyl)-1-((S)-1-(5-phenylthiophen-2-ylsulfonyl)piperidine-2-carbonyloxy)propyl)phenoxy)acetic acid] | 9.5% | 3.2% | – |
| COc1ccc(CC[C@@H](OC(=O)[C@@H]2CCCCN2S(=O)(=O)c2c(C)nn(C)c2C)c2cccc(OCC(=O)O)c2)cc1OC [Compound 61, 2-(3-((R)-3-(3,4-dimethoxyphenyl)-1-((S)-1-(1,3,5-trimethyl-1H-pyrazol-4-ylsulfonyl)piperidine-2-carbonyloxy)propyl)phenoxy)acetic acid] | 1.9% | 5.5% | – |
| COc1ccc(CC[C@@H](OC(=O)[C@@H]2CCCCN2S(=O)(=O)c2c(C)nn(-c3ccccc3)c2C)c2cccc(OCC(=O)O)c2)cc1OC [Compound 62, 2-(3-((R)-3-(3,4-dimethoxyphenyl)-1-((S)-1-(3,5-dimethyl-1-phenyl-1H-pyrazol-4-ylsulfonyl)piperidine-2-carbonyloxy)propyl)phenoxy)acetic acid] | 4.7% | 0.9% | – |
| COc1ccc(CC[C@@H](OC(=O)[C@@H]2CCCCN2S(=O)(=O)c2ccc(C)cc2)c2cccc(OCC(=O)O)c2)cc1OC [Compound 63, 2-(3-((R)-3-(3,4-dimethoxyphenyl)-1-((S)-1-tosylpiperidine-2-carbonyloxy)propyl)phenoxy)acetic acid] | – | – | inhibition at 5 µM [1]: 3.8%; inhibition at 5 µM [2]: 3.2% |
| CCOC(=O)C1CCCCN1S(=O)(=O)Cc1ccccc1 (centres unmarked) [Ref. 1, Ethyl 1-(benzylsulfonyl)piperidine-2-carboxylate, reference compound] | – | – | IC50 [1]: > 100 µM; IC50 [2]: > 100 µM |
| CCOC(=O)C1CCCCN1S(=O)(=O)c1cccc([N+](=O)[O-])c1 (centres unmarked) [Ref. 2, Ethyl 1-(3-nitrophenylsulfonyl)piperidine-2-carboxylate, reference compound] | – | – | IC50 [1]: > 100 µM; IC50 [2]: > 100 µM |
| COc1ccc(CCCOC(=O)C2CCCCN2S(=O)(=O)Cc2ccccc2)cc1OC (centres unmarked) [Ref. 3, 3-(3,4-dimethoxyphenyl)propyl 1-(benzylsulfonyl)piperidine-2-carboxylate, reference compound] | – | – | IC50 [1]: > 100 µM; IC50 [2]: > 100 µM |
| O=C(OCCCc1cccnc1)C1CCCCN1S(=O)(=O)c1cccc([N+](=O)[O-])c1 (centres unmarked) [Ref. 4, 3-(pyridin-3-yl)propyl 1-(3-nitrophenylsulfonyl)piperidine-2-carboxylate, reference compound] | – | – | IC50 [1]: > 100 µM; IC50 [2]: > 100 µM |

The next lines start with results.

| inhibition at 5 µM [1, 3] | inhibition at 5 µM [2, 3] | Compound | also measured |
| --- | --- | --- | --- |
| 9.5% | 1.4% | COc1ccc(CC[C@@H](OC(=O)[C@@H]2CCCCN2S(=O)(=O)c2ccccc2Cl)c2cccc(OCC(=O)O)c2)cc1OC [Compound 45, 2-(3-((R)-1-((S)-1-(2-chlorophenylsulfonyl)piperidine-2-carbonyloxy)-3-(3,4-dimethoxyphenyl)propyl)phenoxy)acetic acid] | – |
| 9.5% | 3.2% | COc1ccc(CC[C@@H](OC(=O)[C@@H]2CCCCN2S(=O)(=O)c2c(Cl)cccc2Cl)c2cccc(OCC(=O)O)c2)cc1OC [Compound 46, 2-(3-((R)-1-((S)-1-(2,6-dichlorophenylsulfonyl)piperidine-2-carbonyloxy)-3-(3,4-dimethoxyphenyl)propyl)phenoxy)acetic acid] | – |
| 11.4% | -0.2% | COc1ccc(CC[C@@H](OC(=O)[C@@H]2CCCCN2S(=O)(=O)c2ccc(C(F)(F)F)c(Cl)c2)c2cccc(OCC(=O)O)c2)cc1OC [Compound 48, 2-(3-((R)-1-((S)-1-(3-chloro-4-(trifluoromethyl)phenylsulfonyl)piperidine-2-carbonyloxy)-3-(3,4-dimethoxyphenyl)propyl)phenoxy)acetic acid] | – |
| 10.4% | 10% | COc1ccc(CC[C@@H](OC(=O)[C@@H]2CCCCN2S(=O)(=O)c2ccc3c(ccn3C)c2)c2cccc(OCC(=O)O)c2)cc1OC [Compound 50, 2-(3-((R)-3-(3,4-dimethoxyphenyl)-1-((S)-1-(1-methyl-1H-indol-5-ylsulfonyl)piperidine-2-carbonyloxy)propyl)phenoxy)acetic acid] | – |
| 6.6% | 9.5% | COc1ccc(CC[C@@H](OC(=O)[C@@H]2CCCCN2S(=O)(=O)c2ccc3c(c2)N(C)CCO3)c2cccc(OCC(=O)O)c2)cc1OC [Compound 51, 2-(3-((R)-3-(3,4-dimethoxyphenyl)-1-((S)-1-(4-methyl-3,4-dihydro-2H-benzo[b][1,4]oxazin-6-ylsulfonyl)piperidine-2-carbonyloxy)propyl)phenoxy)acetic acid] | – |
| 5.7% | – | COc1ccc(CC[C@@H](OC(=O)[C@@H]2CCCCN2S(=O)(=O)c2ccoc2)c2cccc(OCC(=O)O)c2)cc1OC [Compound 53, 2-(3-((R)-3-(3,4-dimethoxyphenyl)-1-((S)-1-(furan-3-ylsulfonyl)piperidine-2-carbonyloxy)propyl)phenoxy)acetic acid] | inhibition at 5 µM [2]: 2% |
| 6.6% | 5.5% | COc1ccc(CC[C@@H](OC(=O)[C@@H]2CCCCN2S(=O)(=O)c2cc3ccccc3o2)c2cccc(OCC(=O)O)c2)cc1OC [Compound 54, 2-(3-((R)-1-((S)-1-(benzofuran-2-ylsulfonyl)piperidine-2-carbonyloxy)-3-(3,4-dimethoxyphenyl)propyl)phenoxy)acetic acid] | – |
| 8.5% | 3.2% | COc1ccc(CC[C@@H](OC(=O)[C@@H]2CCCCN2S(=O)(=O)c2cccs2)c2cccc(OCC(=O)O)c2)cc1OC [Compound 55, 2-(3-((R)-3-(3,4-dimethoxyphenyl)-1-((S)-1-(thiophen-2-ylsulfonyl)piperidine-2-carbonyloxy)propyl)phenoxy)acetic acid] | – |
| 4.7% | 3.2% | COc1ccc(CC[C@@H](OC(=O)[C@@H]2CCCCN2S(=O)(=O)c2csc3ccccc23)c2cccc(OCC(=O)O)c2)cc1OC [Compound 57, 2-(3-((R)-1-((S)-1-(benzo[b]thiophen-3-ylsulfonyl)piperidine-2-carbonyloxy)-3-(3,4-dimethoxyphenyl)propyl)phenoxy)acetic acid] | – |
